Reference: US9346753B2, “Dithiol mucolytic agents” (PARION SCIENCES, INC., priority 2013, dated 2016)
Structures can show the parent of a compound that is named as a salt.

How the values were obtained:
[1] = DTNB assay: rate of disulfide bond reduction; format: biochemical; parameters: unit not given here; details: 2nd order kinetic
Procedure: DTNB ASSAY: This assay determines the rate which a mucolytic agent can reduce a disulfide bond using 5,5-Dithiobis(2-nitrobenzoic acid). DTNB in various pH buffers and allows comparison of the kinetic rates of reducing agents. First, reducing agent stock solutions (30 mM) were made up in DMSO. Each compound stock solution was diluted, […] in 1 ml 50 mM Tris-HCl buffer, pH 7.5, and then added in a 1:1 volumetric ratio to a solution of 100 mM DTNB in 50 mM Tris-HCl buffer, pH 7.5. Max Abs412 was measured and then utilized to calculate the activity concentration. If the observed activity concentrations differed from expected activity concentrations by more than 5%, the volume was accordingly adjusted to kinetically test the rate in the next step. After having added the reducing agents, diluted in a range of pH buffer solutions (pH 6.0-7.5), to 45 mM DTNB in 50 mM Tris-HCl and measured the Abs412 for 5 min rates were calculated as a 2nd order kinetic.

sheep treated with NE = test: TMV studies in sheep (neutrophil elastase model of acute bronchitis); format: in vivo; details: 1 μmole/kg by aerosol after neutrophil elastase (NE)
Procedure: Test articles were administered to the pulmonary surfaces as an inhalation aerosol. For human neutrophil Elastase (HNE) studies, tracheal mucus velocity (TMV) was measured at 1 and 2 hours after HNE (but before drug); and 1, 30, 60, 90, and 120 minutes post-aerosol administration of Compound G.
The measurements of TMV were made as follows: Eight to 10 radiopaque Teflon disks (˜1 mm in diameter, 0.8 mm thick, and weighing between 1.5-2 mg) were introduced into the trachea via an endotracheal tube (ETT). The particles were insufflated by a catheter connected to a source of compressed air (flow rate of 3-4 ml/min at 50 psi). The catheter was removed following insufflation without contacting the tracheal surface. To minimize the ETT effects on TMV, the cuff was deflated throughout the study except for the period of drug delivery. The disk movements were recorded using videotaped fluoroscopy, and individual disk velocities were calculated by measuring the distance traveled by each disk over a 60-s period. A collar containing radiopaque markers of predetermined length was placed around the animal's neck, which was used as a standard to correct for magnification effects intrinsic to the fluoroscopy unit. The mean value of disk velocities was calculated for each time point. To avoid dehydration, the sheep were periodically gavaged with tap water via a nastrogastric tube. […]

[2] = Elimination of inhaled NAC from the lungs in animal studies; format: in vivo; details: inhaled or intranasal, 14C-labeled NAC, administered by inhalation, animal studies (unpublished observation)
Description: NAC, as a topical pulmonary therapeutic agent, is not optimal for the reduction of mucin disulfide bonds. […] For example, in the pH environment of the airway surface (measured in the range of pH 6.0 to 7.2 in CF and COPD airways), NAC exists only partially in its reactive state as a negatively charge thiolate (Jayaraman S, Song Y, Vetrivel L, Shankar L, Verkman A S. Noninvasive in vivo fluorescence measurement of airway-surface liquid depth, salt concentration, and pH. J Clin Invest. 2001; 107(3):317-24) (FIG. 3). […] The relatively low reducing activity at of NAC physiologic airway pH and a the short half-life of NAC on the lung surface provide an explanation for the lack of strong clinical evidence for effective mucus reduction in mucus obstructive diseases.

half-life [2] [min]	Compound	Kinetic Reaction Rates of Reduction of DTNB ([1]; pH 6)	Duration of TMV restoration post-dosing (sheep treated with NE) [h]	Tracheal mucus velocity (TMV) (sheep treated with NE; compared with vehicle)	Kinetic Reaction Rates of Reduction of DTNB ([1]; pH 6.5)	Kinetic Reaction Rates of Reduction of DTNB ([1]; pH 7)	Kinetic Reaction Rates of Reduction of DTNB ([1]; pH 7.5)
–	N=C(N)NCCCC[C@@H](N)C(=O)NCCOc1cc(CS)c(CS)cc1OCCNC(=O)[C@H](N)CCCCNC(=N)N [Compound G, (2R,2′R)-N,N′-(2,2′-(4,5-bis(mercaptomethyl)-1,2-phenylene)bis(oxy)bis(ethane-2,1-diyl))bis(2-amino-6-guanidinohexanamide) Hydrochloride]	5154	2	restored TMV to normal, pre-NE levels	–	–	–
~20	CC(=O)N[C@@H](CS)C(=O)O [NAC, N-acetyl cysteine, reference compound]	10	–	–	26	69	230
–	N=C(N)NCCCC[C@H](N)C(=O)NCCCC[C@H](N)C(=O)NCCCC[C@H](N)C(=O)NCCOc1ccc(CS)c(CS)c1 [U, (S)-2-amino-6-((S)-2-amino-6-((S)-2-amino-6-guanidinohexanamido)hexanamido)-N-(2-(3,4-bis(mercaptomethyl)phenoxy)ethyl)hexanamide Hydrochloride]	5761	–	–	–	–	–
–	NCCCC[C@H](N)C(=O)NCCCC[C@H](N)C(=O)NCCOc1cc(CS)c(CS)cc1OCCNC(=O)[C@@H](N)CCCCNC(=O)[C@@H](N)CCCCN [X, (S,2S,2′S)-N,N′-(2,2′-(4,5-bis(mercaptomethyl)-1,2-phenylene)bis(oxy)bis(ethane-2,1-diyl))bis(2-amino-6-((S)-2,6-diaminohexanamido)hexanamide)]	8029	–	–	–	–	–
–	N=C(N)NCCCC[C@H](N)C(=O)NCCCC[C@H](N)C(=O)NCCOc1cc(CS)c(CS)cc1OCCNC(=O)[C@@H](N)CCCCNC(=O)[C@@H](N)CCCCNC(=N)N [Y, (S,2S,2′S)-N,N′-(2,2′-(4,5-bis(mercaptomethyl)-1,2-phenylene)bis(oxy)bis(ethane-2,1-diyl))bis(2-amino-6-((S)-2-amino-6-guanidinohexanamido)hexanamide)]	8718	–	–	–	–	–
–	N=C(N)NCCCC[C@@H](N)C(=O)NCCCN(CCCNC(=O)[C@H](N)CCCCNC(=N)N)CCOc1ccc(CS)c(CS)c1 [Z, (2R,2′R)-N,N′-(3,3′-(2-(3,4-bis(mercaptomethyl)phenoxy)ethylazanediyl)bis(propane-3,1-diyl))bis(2-amino-6-guanidinohexanamide)]	7200	–	–	10420	10631	18513
